Measured values reported in US20160009727A1, “SA[…] PP2C INHIBITORS FOR CANCER TREATMENT” (Lixte Biotechnology, Inc., priority 2013, published 2016).
Read-outs that look alike come from different tables or passages of the source.

What was measured:
U87MG (glioblastoma) = test: U-87 MG WST assay (cell growth / cell viability); assay type: cell-based, human; conditions: for IC50: Homo sapiens; for effect on cell growth and cell viability of U87MG: U87MG in vitro, result in words
A549 (lung carcinoma) = test: A549 WST assay (cell growth / cell viability); assay type: cell-based, human; conditions: for IC50: Homo sapiens; for effect on cell growth and cell viability of A549: A549 in vitro, result in words
[1] = U-87 MG, U87MG (glioblastoma), summary, FIG. 1 / Discussion, read-out: IC50, inhibition of growth in vitro of U87MG
[2] = first U-87 MG WST assay, FIG. 4, read-out: IC50, first U-87 MG WST assay
[3] = second U-87 MG WST assay, FIG. 5, read-out: IC50, second U-87 MG WST assay
[4] = A549 (lung carcinoma), summary, FIG. 1 / Discussion, read-out: IC50, inhibition of growth in vitro of A549
[5] = first A549 WST assay, FIG. 2, read-out: IC50, first A549 WST assay
[6] = second A549 WST assay, FIG. 3, read-out: IC50, second A549 WST assay
[7] = listed as N-ethyl derivative of sanguinarine

Row | SMILES | IC50 (U87MG (glioblastoma); [1]) [nM] | IC50 (U87MG (glioblastoma); [2]) [nM] | IC50 (U87MG (glioblastoma); [3]) [nM] | melting point [°C] | IC50 (A549 (lung carcinoma); [4]) [nM] | IC50 (A549 (lung carcinoma); [5]) [nM] | IC50 (A549 (lung carcinoma); [6]) [nM] | effect on cell growth and cell viability of U87MG (U87MG (glioblastoma)) | effect on cell growth and cell viability of U87MG (U87MG (glioblastoma); [7]) | effect on cell growth and cell viability of A549 (A549 (lung carcinoma)) | effect on cell growth and cell viability of A549 (A549 (lung carcinoma); [7])
1 | c1c2c(cc3c1OCO3)-c1ncc3c4c(ccc3c1CC2)OCO4 [Compound 14, 11,12-Dihydro-2,3,7,8-bismethylenedioxybenzo[c]phenanthridine] | > 10000 | > 10000 | > 10000 | 246 to 247 | > 10000 | > 10000 | > 10000 | – | – | – | –
2 | c1cc2c(cnc3c4cc5c(cc4ccc23)OCO5)c2c1OCO2 [Compound 15, 2,3,7,8-bismethylene-dioxybenzo[c]-phenanthridine] | > 10000 | > 10000 | > 10000 | 270 to 272 | > 10000 | > 10000 | > 10000 | – | – | – | –
3 | CC[n+]1cc2c3c(ccc2c2ccc4cc5c(cc4c21)OCO5)OCO3.[Cl-] [Compound 17, N-Ethyl Derivative of Sanguinarine] | ~3300 | ~3300 | ~3300 | 258 to 259 | ~1600 | ~1600 | ~1600 | inhibits cell growth and reduces cell viability | inhibited cell growth | inhibits cell growth and reduces cell viability | inhibited cell growth
4 | CC[C@@]1(O)C(=O)OCc2c1cc1n(c2=O)Cc2cc3c(CN(C)C)c(O)ccc3nc2-1 [Topotecan, reference compound] | 300 | ~300 | ~300 | – | 200 | ~200 | ~200 | – | – | – | –
5 | C[n+]1cc2c3c(ccc2c2ccc4cc5c(cc4c21)OCO5)OCO3 [sanguinarine, 13-methyl-[1,3]benzodioxolo[5,6-c]-1,3-dioxolo[4,5-i]phenanthridinium, reference compound] | 2000 | 2000 | 2000 | – | 800 | 800 | 800 | – | – | – | –
